Read-outs that look alike come from different tables or passages of the source.
Key:
[1] = estimated melting point temperature ranges of candidate organic compounds (Table 2); some compounds have several values, partly in parentheses, because analytic techniques differ; cited from earlier work
[2] = 20° C.; cited from earlier work

Row | Structure (SMILES) | Melting Point [°C] | Melting Point [1] | Vapor Pressure [2]
1 | NNc1nnc(Cc2ccncc2)c2ccccc12 [Example 149] | 261 to 264 | 261-264° ° C. | –
2 | c1ccc(-c2nc3ncncc3[nH]2)cc1 [Example 150] | 261 to 262 | 261-262° ° C. | –
3 | O=c1c2ccccc2oc2nc3ccccc3nc12 [Example 155] | 261 | 261° ° C. | –
4 | O=C1c2ccccc2-c2oc(=O)c3ccccc3c21 [Example 156] | 261 to 262 | 261-262° ° C. | –
5 | Nc1nnc(N)n1N [Example 158] | 262 to 263 | 262-263° ° C. | –
6 | Cc1[nH]nc2c1N(c1ccccc1)C(=O)CC(=O)N2C [Example 159] | 262 | 262° ° C. | –
7 | O=C1CC(=O)N(c2ccccc2)C(=O)N1 [Example 160] | 262 | 262° ° C. | –
8 | COc1ncnc2nc[nH]c12 [Example 161] | 262 to 263 | 262-263° ° C. | –
9 | O=C(O)c1cccc2c1-c1ccc([N+](=O)[O-])cc1C2=O [Example 163] | 262 to 262.5 | 262-262.5° ° C. | –
10 | O=c1c2ccccc2[nH]c2c([N+](=O)[O-])cccc12 [Example 164] | 262 | 262° ° C. | –
11 | CC(=O)N[C@@H]1CCC[C@H](NC(C)=O)C1 [Example 166] | 262 to 264 | 262-264° ° C. | –
12 | NC(=O)C(CC(C(N)=O)C(N)=O)C(N)=O [Example 168] | 263 to 265 | 263-265° ° C. | –
13 | O=[N+]([O-])c1c2ccccc2c([N+](=O)[O-])c2ccccc12 [Example 171] | 263 | 263° ° C. | –
14 | Oc1cc2cc3c(ccc4ccccc43)cc2c2ccccc12 [Example 173] | 263 to 264 | 263-264° ° C. | –
15 | COc1c(O)cc2c(c1OC)-c1ccc(OC)c(=O)cc1C(NC=O)CC2 (centres unmarked) [Example 175] | 263 to 267 | 263-267° ° C. | –
16 | OCC(CO)(CO)CO [pentaerythritol, 2,2-Bis(hydroxymethyl)-1,3-propanediol] | – | – | <1 mmHG (20° C.)

Further lines, with some results ahead:

Row | Melting Point [°C] | Structure (SMILES) | Melting Point [1] | Vapor Pressure [2]
17 | 263 | Cc1cc(=O)oc2cccc(O)c12 [Example 169] | 263° ° C. | –
18 | 263 to 264 | CC(=O)N[C@H]1[C@@H](OCc2ccccc2)O[C@@H]2CO[C@H](c3ccccc3)O[C@H]2[C@@H]1O [Example 176] | 263-264° ° C. | –
19 | 263 to 264 | NC(=O)c1c2ccccc2nc2ccccc12 [Example 178] | 263-264° ° C. | –
20 | 264 | O=[N+]([O-])c1ccc(NN=Cc2ccccn2)cc1 [Example 181] | 264° ° C. | –
21 | 264 to 266 | O=C1N=C(NO)c2ccccc21 [Example 182] | 264-266° ° C. | –
22 | 264 to 265 | O=c1cc2[nH]c3ccccc3oc-2cc1=O [Example 185] | 264-265° ° C. | –
23 | 264 to 266 | CCCCCCCCn1cnc2c(=S)nc[nH]c21 [Example 188] | 264-266° ° C. | –
24 | 265 | c1ccc(-c2n[nH]c(-c3ccccc3)c2-c2ccccc2)cc1 [Example 189] | 265° ° C. | –
25 | 265 to 268 | CC1(C)CC2(CC(C)(C)NC(=O)N2)NC(=O)N1 [Example 190] | 265-268° ° C. | –
26 | 265 to 267 | NC(=O)c1c2c(nc3ccccc13)CCCC2 [Example 191] | 265-267° ° C. | –
27 | 265 to 266 | Cn1c(=O)c2ccn(C)c2n(C)c1=O [Example 192] | 265-266° ° C. | –
28 | 265 to 266 | N#Cc1ccc(Nc2ccc(C#N)cc2)cc1 [Example 194] | 265-266° ° C. | –
29 | 265 | Nc1cc(N)n(N)c(=S)n1 [Example 197] | 265° ° C. | –
30 | 265 | Nc1cccc2c1C(=O)c1c(N)cccc1C2=O [Example 198] | 265° ° C. | –
31 | 265 | Nc1ccc2cc([N+](=O)[O-])ccc2n1 [Example 201] | 265° ° C. | –
32 | 265 | Cc1ccc2cnc(O)cc2c1 [Example 204] | 265° ° C. | –
33 | 265 | Cc1nc2c(C)c(C)c(C)c(C)c2[nH]1 [Example 209] | 265° ° C. | –
